Data from the NIST ThermoML archive (doi:10.1016/j.jct.2010.08.021).
Numbers after ± are expanded uncertainties.

Assay: mn = molality of the nth substance listed, in mol/kg
Settings: 283.15 K; 101 kPa; Liquid; Vibrating tube method; m2 = 0

| Structure (SMILES) | mass density [kg/m3] |
| --- | --- |
| O [water] + N.N.O=C(O)CC(O)(CC(=O)O)C(=O)O | 999.699 ± 0.15 |
| O [water] + NCC(=O)O | 999.699 ± 0.11 |
| O [water] + N[C@@H](CO)C(=O)O | 999.699 ± 0.12 |
